Measurements taken from ChEMBL document CHEMBL4312044, “Pharmacokinetics-Driven Optimization of 7-Methylimidazo[1,5-a]pyrazin-8(7H)-one as Novel BRD4 Inhibitors” (ACS Med Chem Lett, 2019).
Activity calls are given as the source filed them. The calls are words filed in the database; no cut-off is given here.

Experiments:
[1] = tested on: Raji; experiment: Antiproliferative activity against human Raji cells assessed as reduction in cell viability at 2 uM by MTT assay relative to control; format: functional; details: for inhibition at 2 µM: Homo sapiens, Raji
[2] = target: T1, Bromodomain-containing protein 4 (Homo sapiens, UniProt O60885); experiment: Inhibition of BRD4 bromodomain1 (unknown origin) using peptide H4 as substrate incubated for 15 mins followed by substrate addition and measured after 1 hr by alphascreen assay
[3] = target: T1, Bromodomain-containing protein 4; experiment: Inhibition of BRD4 bromodomain2 (unknown origin) using peptide H4 as substrate incubated for 15 mins followed by substrate addition and measured after 1 hr by alphascreen assay
[4] = Metabolic stability in human liver microsomes assessed as residue remaining at 10 uM incubated for 20 and 40 mins; format: ADME, Microsome; details: read-out: Stability
[5] = tested on: HL-60; experiment: Antiproliferative activity against human HL60 cells assessed as reduction in cell viability by MTT assay; format: functional, cell-based
[6] = tested on: BXPC-3; experiment: Antiproliferative activity against human BxPC3 cells assessed as reduction in cell viability at 2 uM by MTT assay relative to control; format: functional; details: for inhibition at 2 µM: Homo sapiens, BXPC-3
[7] = Metabolic stability in rat liver microsomes assessed as residue remaining at 10 uM incubated for 20 and 40 mins; format: ADME, Microsome; details: read-out: Stability
[8] = Metabolic stability in mouse liver microsomes assessed as residue remaining at 10 uM incubated for 20 and 40 mins; format: ADME, Microsome; details: read-out: Stability
[9] = tested on: BXPC-3; experiment: Antitumor activity against human BxPC3 cells xenografted in BALB/c SCID mouse assessed as reduction in tumor growth inhibition at 30 mg/kg, ip bid measured on day 14 relative to control; format: functional; details: BXPC-3, ip, 336 h, read-out: TGI
[10] = tested on: BXPC-3; experiment: Inhibition of colony formation in human BxPC3 cells at 2 uM relative to control; format: functional
[11] = Toxicity in BALB/c SCID mouse assessed as reduction in body weight at 5 and 50 mg/kg, ip measured on day 14; format: organism-based; details: in vivo
[12] = tested on: BXPC-3; experiment: Antitumor activity against human BxPC3 cells xenografted in BALB/c SCID mouse assessed as reduction in tumor growth inhibition at 5 mg/kg, ip measured on day 14 relative to control; format: functional; details: BXPC-3, ip, 336 h, read-out: TGI
[13] = tested on: BXPC-3; experiment: Antitumor activity against human BxPC3 cells xenografted in BALB/c SCID mouse assessed as reduction in tumor growth inhibition at 50 mg/kg, ip measured on day 14 relative to control; format: functional; details: BXPC-3, ip, 336 h, read-out: TGI
[14] = tested on: Mus musculus; experiment: Down regulation of c-Myc in BALB/c SCID mouse xenogrfted with human BxPC3 cells at 50 mg/kg, ip measured on day 14 by immunohistochemical analysis; format: functional, organism-based
[15] = tested on: Mus musculus; experiment: Upregulation of […] in BALB/c SCID mouse xenogrfted with human BxPC3 cells at 50 mg/kg, ip measured on day 14 by immunohistochemical analysis; format: functional, organism-based
[16] = tested on: BXPC-3; experiment: Antitumor activity against human BxPC3 cells xenografted in BALB/c SCID mouse assessed as suppression of cell proliferation at 50 mg/kg, ip measured on day 14 by Ki-67 staining based assay; format: functional, organism-based
[17] = Drug localization in nuclei of human BxPC3 cells at 2 uM incubated for 0.5 hrs by Hoechst 33342 staining based microscopic analysis; format: ADME, cell-based; details: bxpc-3, 0.5 h

Row | Structure (SMILES) | inhibition at 2 µM [1] | IC50 [2] | IC50 [3] | remaining at 40 min, 10 µM [4] | IC50 [5] | inhibition at 2 µM [6] | remaining at 40 min, 10 µM [7] | remaining at 40 min, 10 µM [8] | inhibition in vivo at 30 mg/kg [9] | inhibition at 2 µM [10] | Activity [11] | inhibition in vivo at 5 mg/kg [12] | inhibition in vivo at 50 mg/kg [13] | Activity [14] | Activity [15] | Activity [16] | Drug uptake [17] | inhibition (INH) [1] | inhibition (INH) [6]
1 | CCS(=O)(=O)Nc1ccc(Oc2cc(F)ccc2C)c(-c2cn(C)c(=O)c3cncn23)c1 | 33.8% | 0.022 µM | 0.034 µM | 13.2% | 0.44 µM | 2.9% | 7.6% | 11.2% | – | – | – | – | – | – | – | – | – | – | –
2 | CCS(=O)(=O)Nc1ccc(Oc2cccc(-c3c(C)noc3C)c2)c(-c2cn(C)c(=O)c3cncn23)c1 | 19.7% | 0.092 µM | 0.081 µM | – | 0.53 µM | 25.1% | – | – | – | – | – | – | – | – | – | – | – | – | –
3 | Cc1noc(C)c1-c1cccc(Oc2ccc(NS(C)(=O)=O)cc2-c2cn(C)c(=O)c3cncn23)c1 | 28.9% | 0.162 µM | 0.179 µM | – | 1.23 µM | 31.7% | – | – | – | – | – | – | – | – | – | – | – | – | –
4 | O=c1[nH]cc(F)c(=O)[nH]1 [FLUOROURACIL] | – | – | – | – | – | – | – | – | 67% | – | – | – | – | – | – | – | – | – | –
5 | CCS(=O)(=O)Nc1ccc(Oc2ccc(F)cc2F)c(-c2cn(C)c(=O)c3cncn23)c1 | 46.2% | 0.033 µM | 0.025 µM | 21.2% | 0.11 µM | 33.2% | 17.6% | 13.2% | – | – | – | – | – | – | – | – | – | – | –
6 | CCS(=O)(=O)Nc1ccc(Oc2ccc(-c3c(C)noc3C)cc2)c(-c2cn(C)c(=O)c3cncn23)c1 | 22.9% | 0.064 µM | 0.05 µM | 54.3% | 0.51 µM | 23.2% | 59.1% | 48.2% | – | – | – | – | – | – | – | – | – | – | –
7 | Cc1noc(C)c1-c1ccc(Oc2ccc(NS(C)(=O)=O)cc2-c2cn(C)c(=O)c3cncn23)cc1 | 23.7% | 0.141 µM | 0.153 µM | – | 1.12 µM | 26.4% | – | – | – | – | – | – | – | – | – | – | – | – | –
8 | CCS(=O)(=O)Nc1ccc(Oc2ccc(F)cc2)c(-c2cn(C)c(=O)c3cncn23)c1 | 39.5% | 0.03 µM | 0.029 µM | 95.2% | 0.045 µM | 38.4% | 76.2% | 65.6% | – | > 50% | Non-Toxic | 22% | 65% | Active | Active | Active | Active | – | –
9 | Cn1cc(-c2cc(NS(C)(=O)=O)ccc2Oc2cccc(Br)c2)n2cncc2c1=O | 29.4% | 0.057 µM | 0.061 µM | 45.9% | 0.45 µM | 36.1% | 34.9% | 67.2% | – | – | – | – | – | – | – | – | – | – | –
10 | Cc1sc2c(c1C)C(c1ccc(Cl)cc1)=N[C@@H](CC(=O)OC(C)(C)C)c1nnc(C)n1-2 | – | – | – | – | 0.87 µM | – | – | – | – | – | – | – | – | – | – | – | – | 47.9% | 31.1%
11 | CCS(=O)(=O)Nc1ccc(Oc2ccc(C(C)C)cc2)c(-c2cn(C)c(=O)c3cncn23)c1 | 50.4% | 0.049 µM | 0.036 µM | 13.1% | 0.11 µM | 35.4% | 3.9% | 17.2% | – | – | – | – | – | – | – | – | – | – | –
12 | CCS(=O)(=O)Nc1ccc(Oc2cc(C)ccc2F)c(-c2cn(C)c(=O)c3cncn23)c1 | 49.9% | 0.046 µM | 0.021 µM | 14.1% | 0.27 µM | 28.8% | 5.7% | 4.6% | – | – | – | – | – | – | – | – | – | – | –
13 | CCS(=O)(=O)Nc1ccc(Oc2ccc(F)cc2F)c(-c2cn(C)c(=O)c3[nH]ccc23)c1 [MIVEBRESIB] | 51.2% | 0.039 µM | 0.047 µM | 60.8% | 0.12 µM | 42.7% | 69% | 60.9% | – | – | – | – | – | – | – | – | – | – | –
14 | CCS(=O)(=O)Nc1ccc(Oc2cc(F)c(F)c(F)c2)c(-c2cn(C)c(=O)c3cncn23)c1 | 46% | 0.046 µM | 0.14 µM | 55.8% | 0.59 µM | 28.7% | 54.3% | 36% | – | – | – | – | – | – | – | – | – | – | –
15 | Cn1cc(-c2cc(NS(C)(=O)=O)ccc2Oc2ccc(F)cc2)n2cncc2c1=O | 24.2% | 0.044 µM | – | 100% | 0.37 µM | 25.3% | 78% | 75.9% | – | – | – | – | – | – | – | – | – | – | –
16 | Cn1cc(-c2cc(NS(C)(=O)=O)ccc2Oc2ccc(Br)cc2)n2cncc2c1=O | 33.1% | 0.037 µM | 0.044 µM | 66.7% | 0.23 µM | 34.8% | 54.2% | 61.2% | – | – | – | – | – | – | – | – | – | – | –
